Source: the OligoGym collection
Several values for one entry are separate records, joined by “and”; a condition that tells them apart may be missing. Equal values may be shown once. After the bases stand the sugars from the 5' end (letter, count) and the backbone: PS all phosphorothioate, else s phosphorothioate and o phosphodiester by linkage. Methylation of C is not given here. e = 2'-O-(2-methoxyethyl) (MOE); k = constrained ethyl (cEt); d = 2'-deoxy (DNA)

Molecular target: IRF4
Conditions: ASO

Sequence | target mRNA inhibition (SK-MEL-28, 4 µM) | target mRNA inhibition (MM.1R, 1 µM) | also measured
ACTGTCCACTGAGTAC (sugars k3 d10 k3, PS) | 61% | – | –
ACTGTTACCGATGCTT (sugars k3 d10 k3, PS) | – | 43% and 25% | target mRNA inhibition (MM.1R, 0.0625 µM): -11%; target mRNA inhibition (MM.1R, 0.25 µM): 4%; target mRNA inhibition (MM.1R, 4 µM): 65%
ACTGTTACCGATGCTT (sugars kdddddddddkekeke, PS) | – | -2% and 17% | –
ACTTAACCCACATCAC (sugars k3 d10 k3, PS) | -22% | – | –
AGAAACCCTCATCACC (sugars k3 d10 k3, PS) | -5% | – | –
AGAAAGAAGCAAGTCG (sugars k3 d10 k3, PS) | 37% | – | –
AGAACGCACGGACGAA (sugars k3 d10 k3, PS) | – | 1% | –
AGAATAAACACCCCTT (sugars k3 d10 k3, PS) | 74% | – | –
AGAGACCATGTTCAGA (sugars k3 d10 k3, PS) | – | 12% | –
AGAGGAATGAGCACTC (sugars k3 d10 k3, PS) | – | 5% | –
AGAGGAATGGCGGATA (sugars k3 d10 k3, PS) | 42% | – | –
AGATCGAGCGGTGAAA (sugars k3 d10 k3, PS) | 24% | – | –
AGATTAATAGTAAGTT (sugars k3 d10 k3, PS) | 4% | – | –
AGATTTACACCGTTGC (sugars k3 d10 k3, PS) | – | 30% | –
AGCAAAACGCAGAGCC (sugars k3 d10 k3, PS) | 61% | – | –
AGCAAGGCCTCTGAGC (sugars k3 d10 k3, PS) | 55% | – | –
AGCAGTAAACGCAAGT (sugars k3 d10 k3, PS) | – | 27% | –
AGCAGTGATGTCAGGT (sugars k3 d10 k3, PS) | – | 84% and 68% | target mRNA inhibition (MM.1R, 0.0625 µM): 1%; target mRNA inhibition (MM.1R, 0.25 µM): 23%; target mRNA inhibition (MM.1R, 4 µM): 92%
AGCAGTGATGTCAGGT (sugars kkdddddddddkekek, PS) | – | 66% and 67% and 64% | target mRNA inhibition (MM.1R, 0.0625 µM): 34%; target mRNA inhibition (MM.1R, 0.25 µM): 54%; target mRNA inhibition (MM.1R, 4 µM): 79%
AGCATAGCATTATCTA (sugars k3 d10 k3, PS) | 34% | – | –
AGCATCACTATTAAGA (sugars k3 d10 k3, PS) | 72% | 10% | target mRNA inhibition (MM.1R, 0.0625 µM): -5%; target mRNA inhibition (MM.1R, 0.074 µM): 2%; target mRNA inhibition (MM.1R, 0.222 µM): 10%; target mRNA inhibition (MM.1R, 0.25 µM): 1%; target mRNA inhibition (MM.1R, 0.666 µM): 10%; target mRNA inhibition (MM.1R, 2 µM): 11%; target mRNA inhibition (MM.1R, 4 µM): 26%
AGCATCCGCTTGGAGA (sugars k3 d10 k3, PS) | 37% | – | –

Sequence | target mRNA inhibition (SK-MEL-28, 4 µM) | target mRNA inhibition (MM.1R, 1 µM) | also measured
AGCATTATCTACCTCA (sugars k3 d10 k3, PS) | 78% | – | –
AGCATTTTATCATCCG (sugars e1 k2 d9 k2 e2, PS) | – | 43% | –
AGCATTTTATCATCCG (sugars k2 d9 e3 k2, PS) | – | 28% | –
AGCATTTTATCATCCG (sugars k3 d9 k3 e1, PS) | – | 66% | target mRNA inhibition (MM.1R, 0.074 µM): 17%; target mRNA inhibition (MM.1R, 0.222 µM): 32%; target mRNA inhibition (MM.1R, 0.666 µM): 61%; target mRNA inhibition (MM.1R, 2 µM): 83%
AGCATTTTATCATCCG (sugars kdddddddddkekeke, PS) | – | 24% | –
AGCATTTTATCATCCG (sugars kkddddddddddkeke, PS) | – | 33% | –
AGCATTTTATCATCCG (sugars kkdddddddddkdkdk, PS) | – | 11% | –
AGCATTTTATCATCCG (sugars kkdddddddddkekek, PS) | – | 39% | –
AGCCAGAGGTTCGCTG (sugars k3 d10 k3, PS) | 25% | – | –
AGCCAGTGCCAGTTCC (sugars k3 d10 k3, PS) | 39% | – | –
AGCCGCTACAGCTTCT (sugars k3 d10 k3, PS) | -8% | – | –
AGCCTTCCTGCTCAGA (sugars k3 d10 k3, PS) | 55% | – | –
AGCGAAGGGTAAGGCG (sugars k3 d10 k3, PS) | 14% | – | –
AGCTAACTGGCCTCAA (sugars k3 d10 k3, PS) | 23% | – | –
AGCTACGCAATCTTCT (sugars k3 d10 k3, PS) | 47% | – | –
AGCTCATCTGCCAATC (sugars k3 d10 k3, PS) | 33% | – | –
AGCTCCACTGTTAAAG (sugars k3 d10 k3, PS) | 44% | – | –
AGCTCCTACATACATT (sugars k3 d10 k3, PS) | 44% | – | –
AGCTCTAGACAGAGGC (sugars k3 d10 k3, PS) | 35% | – | –
AGCTGACCATGTTACA (sugars k3 d10 k3, PS) | -19% | – | –
AGCTGATGGAGAAACG (sugars k3 d10 k3, PS) | 10% | – | –
AGCTGGTAGGTCAAAC (sugars k3 d10 k3, PS) | -5% | – | –

Sequence | target mRNA inhibition (SK-MEL-28, 4 µM) | target mRNA inhibition (MM.1R, 1 µM) | also measured
AGCTTCTTTGAAGTGC (sugars k3 d10 k3, PS) | 62% | – | –
AGCTTGATAAAGGCTG (sugars k3 d9 k3 e1, PS) | – | 2% | –
AGGAAACTTGGAGCGC (sugars k3 d10 k3, PS) | 77% | 15% | target mRNA inhibition (MM.1R, 0.0625 µM): -1%; target mRNA inhibition (MM.1R, 0.25 µM): 2%; target mRNA inhibition (MM.1R, 4 µM): 42%
AGGAACGAAGAGCAGG (sugars k3 d10 k3, PS) | 43% | – | –
AGGAACTGACCTAACT (sugars k3 d10 k3, PS) | 31% | – | –
AGGACAATGGAGATAC (sugars k3 d10 k3, PS) | 72% | – | –
AGGACACTCACAGGCG (sugars k3 d10 k3, PS) | – | 8% | –
AGGCACATCAATGTTT (sugars kdddddddddkekeke, PS) | – | -9% and 3% | –
AGGCACCGCACTCCGG (sugars k3 d10 k3, PS) | – | -13% | –
AGGCACTTACTAGGTG (sugars k3 d10 k3, PS) | 54% | – | –
AGGCAGTTGTGCCGTC (sugars k3 d10 k3, PS) | -62% | – | –
AGGCTCGGGCAGAGCC (sugars k3 d10 k3, PS) | 1% | – | –
AGGGACCGCGCCAGGC (sugars k3 d10 k3, PS) | – | 0% | –
AGGTAAAGGCACATTC (sugars k3 d10 k3, PS) | 19% | – | –
AGGTAATCTGTATAGT (sugars k3 d10 k3, PS) | 62% | – | –
AGTAACTGACACGCAC (sugars k3 d10 k3, PS) | 51% | – | –
AGTACAGTCCACTCCA (sugars k3 d10 k3, PS) | – | 7% | –
AGTATGAGAAACGGCC (sugars k2 d9 e3 k2, PS) | – | 16% | –
AGTATGAGAAACGGCC (sugars kdddddddddkekeke, PS) | – | 4% | –
AGTCAAGCCCCAAGCC (sugars k3 d10 k3, PS) | 13% | – | –
AGTCAATCACTGGAGA (sugars k3 d10 k3, PS) | 60% | 16% and 22% | target mRNA inhibition (MM.1R, 0.0625 µM): 1% and -8%; target mRNA inhibition (MM.1R, 0.074 µM): 0%; target mRNA inhibition (MM.1R, 0.222 µM): -15%; target mRNA inhibition (MM.1R, 0.25 µM): 4% and 5%; target mRNA inhibition (MM.1R, 0.666 µM): -7%; target mRNA inhibition (MM.1R, 2 µM): 9%; target mRNA inhibition (MM.1R, 4 µM): 40% and 45%
AGTCACCTGGAATCTT (sugars k3 d10 k3, PS) | 47% | – | –

Sequence | target mRNA inhibition (SK-MEL-28, 4 µM) | target mRNA inhibition (MM.1R, 1 µM) | also measured
AGTGAAGTCGGGAGAT (sugars k3 d10 k3, PS) | – | 8% | –
AGTGACTTGCATCCAT (sugars kkddddddddddkeke, PS) | – | 50% | –
AGTGACTTGCATCCAT (sugars kkdddddddddkdkdk, PS) | – | 22% | –
AGTGATAGGTATACTT (sugars k3 d10 k3, PS) | 39% | – | –
AGTTGTAAATGAGTCG (sugars k2 d9 e3 k2, PS) | – | 66% | target mRNA inhibition (H929, 0.04 µM): 57% and 42%; target mRNA inhibition (KMS11, 0.2 µM): 86% and 92%; target mRNA inhibition (MM.1R, 0.074 µM): 10%; target mRNA inhibition (MM.1R, 0.222 µM): 25%; target mRNA inhibition (MM.1R, 0.666 µM): 55%; target mRNA inhibition (MM.1R, 2 µM): 77%
AGTTGTAAATGAGTCG (sugars kddddddddddkekek, PS) | – | 44% | –
AGTTGTAAATGAGTCG (sugars kkdddddddddekeke, PS) | – | 73% | target mRNA inhibition (MM.1R, 0.074 µM): 17%; target mRNA inhibition (MM.1R, 0.222 µM): 44%; target mRNA inhibition (MM.1R, 0.666 µM): 67%; target mRNA inhibition (MM.1R, 2 µM): 86%
AGTTTGTGAAGCATCC (sugars k3 d10 k3, PS) | 69% | – | –
ATAAACACCCCTTCTT (sugars k3 d10 k3, PS) | 30% | – | –
ATAACACGGTGTTGAC (sugars k3 d10 k3, PS) | – | 21% | –
ATAACCGGTAGAGTGA (sugars k3 d10 k3, PS) | 50% | – | –
ATAATATAGTTGTCTG (sugars k3 d10 k3, PS) | 35% | – | –
ATACACACCCTCGGGC (sugars k3 d10 k3, PS) | – | -10% | –
ATAGAATTAGGTGCTT (sugars k3 d10 k3, PS) | 64% | 25% | target mRNA inhibition (MM.1R, 0.0625 µM): -5%; target mRNA inhibition (MM.1R, 0.074 µM): -1%; target mRNA inhibition (MM.1R, 0.222 µM): 33%; target mRNA inhibition (MM.1R, 0.25 µM): 6%; target mRNA inhibition (MM.1R, 0.666 µM): 11%; target mRNA inhibition (MM.1R, 2 µM): 8%; target mRNA inhibition (MM.1R, 4 µM): 56%
ATAGAGCATCACTATT (sugars k3 d10 k3, PS) | – | 0% | –
ATAGATCTGTGGTAAT (sugars k3 d10 k3, PS) | 38% | – | –
ATAGCTGAGCTGATCA (sugars k3 d10 k3, PS) | – | 30% | –
ATAGCTGTTTATTTCC (sugars k3 d10 k3, PS) | 62% | – | target mRNA inhibition (MM.1R, 0.074 µM): 7%; target mRNA inhibition (MM.1R, 0.222 µM): 12%; target mRNA inhibition (MM.1R, 0.666 µM): 24%; target mRNA inhibition (MM.1R, 2 µM): 50%; target mRNA inhibition (SK-MEL-28, 0.185 µM): 13%; target mRNA inhibition (SK-MEL-28, 5 µM): 75%; target mRNA inhibition (SK-MEL-28, 15 µM): 90%
ATAGGTATACTTAAGC (sugars k3 d10 k3, PS) | 80% and 79% | – | –
ATAGTTAAGTACTTGG (sugars k3 d10 k3, PS) | 48% | – | –
ATATAGAATTAGGTGC (sugars k3 d10 k3, PS) | 16% | – | –
